Values after ≈ are worked out from the molar mass of the structure shown. Read-outs that look alike come from different tables or passages of the source. Blank lines part the entries; values can stand above or below the molecule they belong to.
Key:
Assay in all cases: MIC (Minimum Inhibitory Concentration)
Assay type in all cases: cell-based
[1] = tested on: Proteus morganii; conditions: Morganella morganii; Proteus morganii 2241
[2] = tested on: Trichophyton schoenleinii; conditions: Trichophyton schoenleinii 435-63; read-out: MIC values
[3] = tested on: Streptococcus haemolyticus; conditions: Streptococcus haemolyticus A 1088; read-out: MIC values
[4] = tested on: Trichophyton mentagrophytus
[5] = tested on: Trichophyton rubrum
[6] = tested on: Candida albicans
[7] = tested on: Staphylococcus aureus
[8] = tested on: Pasteurella multocida; conditions: Pasteurella multocida A 723; read-out: MIC values
[9] = tested on: Trichophyton tonsurans; conditions: Trichophyton tonsurans 561-50; read-out: MIC values
[10] = tested on: Bacillus subtilis; conditions: ATCC6633; Bacillus subtilis ATCC 6633
[11] = tested on: Trichophyton quickeaneum; conditions: Trichophyton quickeaneum A 2040; read-out: MIC values
[12] = tested on: Trichophyton soudanese joyeux; conditions: Trichophyton soudanese joyeux 440-63; read-out: MIC values
[13] = tested on: Trichophyton violoceum; conditions: Trichophyton violoceum 442-62; read-out: MIC values
[14] = tested on: Diplococcus pneumoniae; conditions: Streptococcus pneumoniae; Diplococcus pneumoniae A 2783
[15] = tested on: Trichophyton verrucosum
[16] = tested on: Trichophyton equinum
[17] = tested on: Rhizoctonia solani; conditions: Rhizoctonia solani 200-25; read-out: MIC values
[18] = tested on: Fusarium (tulip); conditions: Fusarium (tulip) A 3253
[19] = tested on: Fusarium solani; conditions: Fusarium solani A 3245; read-out: MIC values
[20] = tested on: Fusarium (bulb); conditions: Fusarium (bulb) A 3252
[21] = Trichophyton mentagrophytus 367-68, read-out: MIC values
[22] = Trichophyton mentagrophytus 421-67, read-out: MIC values
[23] = Trichophyton mentagrophytus A 3252, read-out: MIC values
[24] = Trichophyton mentagrophytus R 177, read-out: MIC values
[25] = Trichophyton mentagrophytus R 178, read-out: MIC values
[26] = Trichophyton mentagrophytus RRL 305, read-out: MIC values
[27] = Trichophyton rubrum 218-65, read-out: MIC values
[28] = Trichophyton rubrum 494-62, read-out: MIC values
[29] = Trichophyton rubrum A 810, read-out: MIC values
[30] = Candida albicans A 7, read-out: MIC values
[31] = Candida albicans A 3140, read-out: MIC values
[32] = Candida albicans A 3141, read-out: MIC values
[33] = Candida albicans A 3142, read-out: MIC values
[34] = Candida albicans A 3143, read-out: MIC values
[35] = Candida albicans A 3144, read-out: MIC values
[36] = Candida albicans A 3145, read-out: MIC values
[37] = Candida albicans A 3165, read-out: MIC values
[38] = Candida albicans A 3166, read-out: MIC values
[39] = Candida albicans A 3167, read-out: MIC values
[40] = Candida albicans A 3168, read-out: MIC values
[41] = Candida albicans A 3169, read-out: MIC values
[42] = Candida albicans A 3171, read-out: MIC values
[43] = Candida albicans A 3184, read-out: MIC values
[44] = Candida albicans A 3190, read-out: MIC values
[45] = Candida albicans A 3191, read-out: MIC values
[46] = Candida albicans A 3192, read-out: MIC values
[47] = Candida albicans A 3194, read-out: MIC values
[48] = Candida albicans A 3196, read-out: MIC values
[49] = Trichophyton verrucosum 134-66, read-out: MIC values
[50] = Trichophyton equinum 182-76, read-out: MIC values
[51] = Trichophyton equinum 441-51, read-out: MIC values
[52] = Trichophyton equinum 856-71, read-out: MIC values

- MIC [1]: 100 mg/L (≈ 380 µM)
- MIC [2]: < 0.05 mg/L
- MIC [4, 21]: 0.2 mg/L (≈ 0.759 µM)
- MIC [4, 22]: 0.8 mg/L (≈ 3.04 µM)
- MIC [4, 23]: 1.5 mg/L (≈ 5.7 µM)
- MIC [4, 24]: 6 mg/L (≈ 22.8 µM)
- MIC [4, 25]: > 100 mg/L
- MIC [4, 26]: 3 mg/L (≈ 11.4 µM)
- MIC [5, 27]: 0.1 mg/L (≈ 0.38 µM)
- MIC [5, 28]: 0.8 mg/L (≈ 3.04 µM)
- MIC [5, 29]: 6 mg/L (≈ 22.8 µM)
- MIC [6, 30]: 6 mg/L (≈ 22.8 µM)
- MIC [6, 31]: 12.5 mg/L (≈ 47.5 µM)
- MIC [6, 32]: > 100 mg/L
- MIC [6, 33]: 50 mg/L (≈ 190 µM)
- MIC [6, 34]: 6 mg/L (≈ 22.8 µM)
- MIC [6, 35]: 50 mg/L (≈ 190 µM)
- MIC [6, 36]: > 100 mg/L
- MIC [6, 37]: 50 mg/L (≈ 190 µM)
- MIC [6, 38]: 12.5 mg/L (≈ 47.5 µM)
- MIC [6, 39]: 50 mg/L (≈ 190 µM)
- MIC [6, 40]: 50 mg/L (≈ 190 µM)
- MIC [6, 41]: 100 mg/L (≈ 380 µM)
- MIC [6, 42]: 50 mg/L (≈ 190 µM)
- MIC [6, 43]: 100 mg/L (≈ 380 µM)
- MIC [6, 44]: 50 mg/L (≈ 190 µM)
- MIC [6, 45]: 50 mg/L (≈ 190 µM)
- MIC [6, 46]: 25 mg/L (≈ 94.9 µM)
- MIC [6, 47]: > 100 mg/L
- MIC [6, 48]: 25 mg/L (≈ 94.9 µM)
- MIC ([7]; Staphylococcus aureus A 321): 12.5 mg/L (≈ 47.5 µM)
- MIC ([7]; Staphylococcus aureus A 355): 6 mg/L (≈ 22.8 µM)
- MIC ([7]; Staphylococcus aureus A 2000): 6 mg/L (≈ 22.8 µM)
- MIC [8]: 3 mg/L (≈ 11.4 µM)
- MIC [9]: 1.5 mg/L (≈ 5.7 µM)
- MIC [10]: 12.5 mg/L (≈ 47.5 µM)
- MIC [11]: 3 mg/L (≈ 11.4 µM)
- MIC [12]: 3 mg/L (≈ 11.4 µM)
- MIC [13]: 0.05 mg/L (≈ 0.19 µM)
- MIC [14]: 6 mg/L (≈ 22.8 µM)
- MIC [15, 49]: < 0.05 mg/L
- MIC ([15]; Trichophyton verrucosum N 3, read-out: MIC values): 0.1 mg/L (≈ 0.38 µM)
- MIC [16, 50]: 3 mg/L (≈ 11.4 µM)
- MIC [16, 51]: < 0.05 mg/L
- MIC [16, 52]: 0.2 mg/L (≈ 0.759 µM)
SMILES: [C-]#[N+]C(=CC(C)(C)C)S(=O)(=O)c1ccc(C)cc1 [Example 4, 3,3-dimethyl-1-isocyano-1-(4-toluenesulphonyl)-1-butene]
- MIC [3]: 1.5 mg/L (≈ 5.7 µM)

SMILES: [C-]#[N+]C(=Cc1ccco1)S(=O)(=O)c1ccc(C)cc1 [Example 10, 2-(2-furyl)-1-isocyano-1-(4-toluenesulphonyl)-ethene]
- MIC [1]: 6 mg/L (≈ 22 µM)
- MIC [2]: 0.1 mg/L (≈ 0.366 µM)
- MIC [3]: 6 mg/L (≈ 22 µM)
- MIC [4, 21]: 0.1 mg/L (≈ 0.366 µM)
- MIC [4, 22]: 1.5 mg/L (≈ 5.49 µM)
- MIC [4, 23]: 3 mg/L (≈ 11 µM)
- MIC [4, 24]: 1.5 mg/L (≈ 5.49 µM)
- MIC [4, 25]: 100 mg/L (≈ 366 µM)
- MIC [4, 26]: 0.1 mg/L (≈ 0.366 µM)
- MIC [5, 27]: 0.1 mg/L (≈ 0.366 µM)
- MIC [5, 28]: 0.1 mg/L (≈ 0.366 µM)
- MIC [5, 29]: < 0.05 mg/L
- MIC [6, 30]: 0.2 mg/L (≈ 0.732 µM)
- MIC [6, 31]: 0.2 mg/L (≈ 0.732 µM)
- MIC [6, 32]: 0.4 mg/L (≈ 1.46 µM)
- MIC [6, 33]: 0.4 mg/L (≈ 1.46 µM)
- MIC [6, 34]: 0.2 mg/L (≈ 0.732 µM)
- MIC [6, 35]: 0.2 mg/L (≈ 0.732 µM)
- MIC [6, 36]: 0.8 mg/L (≈ 2.93 µM)
- MIC [6, 37]: 0.4 mg/L (≈ 1.46 µM)
- MIC [6, 38]: 0.4 mg/L (≈ 1.46 µM)
- MIC [6, 39]: 0.4 mg/L (≈ 1.46 µM)
- MIC [6, 40]: 0.4 mg/L (≈ 1.46 µM)
- MIC [6, 41]: 0.4 mg/L (≈ 1.46 µM)
- MIC [6, 42]: 0.4 mg/L (≈ 1.46 µM)
- MIC [6, 43]: 0.2 mg/L (≈ 0.732 µM)
- MIC [6, 44]: 0.4 mg/L (≈ 1.46 µM)
- MIC [6, 45]: 0.4 mg/L (≈ 1.46 µM)
- MIC [6, 46]: 0.2 mg/L (≈ 0.732 µM)
- MIC [6, 47]: 0.4 mg/L (≈ 1.46 µM)
- MIC [6, 48]: 0.4 mg/L (≈ 1.46 µM)
- MIC ([7]; Staphylococcus aureus A 321): 12.5 mg/L (≈ 45.7 µM)
- MIC ([7]; Staphylococcus aureus A 355): 12.5 mg/L (≈ 45.7 µM)
- MIC ([7]; Staphylococcus aureus A 2000): 12.5 mg/L (≈ 45.7 µM)
- MIC [8]: < 1.5 mg/L
- MIC [9]: 3 mg/L (≈ 11 µM)
- MIC [17]: 1.5 mg/L (≈ 5.49 µM)
- MIC [10]: 6 mg/L (≈ 22 µM)
- MIC [18]: 12.5 mg/L (≈ 45.7 µM)
- MIC [11]: 3 mg/L (≈ 11 µM)
- MIC [12]: 6 mg/L (≈ 22 µM)
- MIC [13]: 0.1 mg/L (≈ 0.366 µM)
- MIC [19]: 25 mg/L (≈ 91.5 µM)
- MIC [14]: 6 mg/L (≈ 22 µM)
- MIC [15, 49]: 0.2 mg/L (≈ 0.732 µM)
- MIC ([15]; Trichophyton verrucosum A 2922, read-out: MIC values): < 0.05 mg/L
- MIC [20]: 25 mg/L (≈ 91.5 µM)
- MIC [16, 50]: 1.5 mg/L (≈ 5.49 µM)
- MIC [16, 51]: < 0.05 mg/L
- MIC [16, 52]: < 0.05 mg/L

From patent EP0007672A1, “Isocyanoalkenes, process and useful intermediates for their preparation, pharmaceutical and fungicidal preparations containing those isocyanoalkenes and the use of the fungicidal preparations in agriculture” (GIST-BROCADES N.V., priority 1978, dated 1980)
